Values after ≈ are worked out from the molar mass of the structure shown. Bridge positions count the residues as written; N and C are the ends. Square brackets hold non-standard residues; d marks the D form. Peptide text beside a SMILES is read from it. * marks the point of attachment. hPhe(3,5-F2-4-CF3) = N[C@@H](CCc1cc(F)c(C(F)(F)F)c(F)c1)C(=O)O; hPhe(3-Cl-4-CF3) = N[C@@H](CCc1ccc(C(F)(F)F)c(Cl)c1)C(=O)O; NMeGly(cPent) = CN[C@H](C(=O)O)C1CCCC1; NMeCha = CN[C@@H](CC1CCCCC1)C(=O)O; Hyp = O=C(O)[C@@H]1C[C@@H](O)CN1; NMeF = CN[C@@H](Cc1ccccc1)C(=O)O; NMeD = CN[C@@H](CC(=O)O)C(=O)O; NMeL = CN[C@@H](CC(C)C)C(=O)O; NMeA = CN[C@@H](C)C(=O)O; Piperidide = C1CCN(*)CC1; Ac5c = NC1(C(=O)O)CCCC1; Aze = O=C(O)[C@@H]1CCN1; Sar = CNCC(=O)O; tBu = CC(C)(C)*
Test: Evaluation of solubility of cyclic peptide compound in phosphate buffer (Example 3-3)
Assay type: physicochemical
Conditions: 50 mM phosphate buffer solution pH 6.5, 37°C, 22 to 24 hours
Experimental: Evaluation of the solubility of the cyclic peptide compound was performed. To lyophilized powder of the compound, a 50 mM phosphate buffer solution (PPB: Phosphate buffer, pH 6.5) was added, and after shaking (at 37°C, 1800 rpm, for 22 to 24 hours), the mixed solution was filtered through a filter, and the compound concentration of the filtrate was measured by LC/MS/MS. Solubility was calculated from the measured compound concentration. The solubilities of the compounds 3, 4, 6, 7, and 8 were 11 µg/mL, 1 µg/mL, 1 µg/mL, 15 µg/mL, and 5 µg/mL, respectively.

Solubility | SMILES
1 µg/mL (≈ 0.688 µM) | CC[C@H](C)[C@@H]1NC(=O)[C@H](CC(C)C)N(C)C(=O)C[C@@H](C(=O)N2CCCCC2)N(C)C(=O)[C@H](C2CCCC2)N(C)C(=O)C2(CCCC2)NC(=O)[C@@H]2CCCN2C(=O)[C@H](CCc2ccc(C(F)(F)F)c(Cl)c2)NC(=O)CN(C)C(=O)[C@H](CC2CCCCC2)N(C)C(=O)[C@@H]2CCN2C(=O)[C@H](C)N(C)C1=O [Compound 6] ([NMeL]I[NMeA][Aze][NMeCha][Sar][hPhe(3-Cl-4-CF3)]P[Ac5c][NMeGly(cPent)][NMeD]-Piperidide; lactam N-11)
1 µg/mL (≈ 0.697 µM) | CC(C)C[C@@H]1NC(=O)[C@H](Cc2ccccc2)N(C)C(=O)[C@H](COC(C)(C)C)NC(=O)[C@H](Cc2ccccc2)N(C)C(=O)[C@H](C)N(C)C(=O)[C@H](CC(C)C)N(C)C(=O)[C@@H](C)NC(=O)C[C@@H](C(=O)N2CCCCC2)NC(=O)[C@H](Cc2ccccc2)N(C)C(=O)[C@H]([C@@H](C)O)NC(=O)[C@H](CC(C)C)N(C)C1=O [Compound 4] ([dA][NMeL][NMeA][NMeF]S(tBu)[NMeF]L[NMeL]T[NMeF]D-Piperidide; lactam N-11)
5 µg/mL (≈ 3.43 µM) | CCO[C@@H]1C[C@H]2C(=O)NC3(CCCC3)C(=O)N(C)[C@@H](C3CCCC3)C(=O)N(C)[C@H](C(=O)N(C)C)CC(=O)N(C)[C@@H](CC(C)C)C(=O)N[C@@H]([C@@H](C)CC)C(=O)N(C)[C@@H](C)C(=O)N3CC[C@H]3C(=O)N(C)[C@@H](CC3CCCCC3)C(=O)N(C)CC(=O)N[C@@H](CCc3cc(F)c(C(F)(F)F)c(F)c3)C(=O)N2C1 [Compound 8] ([NMeL]I[NMeA][Aze][NMeCha][Sar][hPhe(3,5-F2-4-CF3)][Hyp](Et)[Ac5c][NMeGly(cPent)][NMeD]-NMe2; lactam N-11)
